Results as given in ChEMBL document CHEMBL3046801, “Synthesis of 2-R1-2-(4-(2-fluoroethoxy)benzamido)acetate as potential PET imaging agents” (Med Chem Res, 2012).

Key:
[1] = tested on: Lung; experiment: Biodistribution in tumor bearing Mus musculus KM (mouse) Lung at 15 min by microPET imaging analysis; format: ADME, organism-based; conditions: in vivo, 0.25 h
[2] = tested on: Brain; experiment: Biodistribution in tumor bearing Mus musculus KM (mouse) brain at 60 min by microPET imaging analysis; format: ADME, organism-based; conditions: in vivo, 1 h
[3] = tested on: Muscle tissue; experiment: Biodistribution in tumor bearing Mus musculus KM (mouse) muscle at 5 min by microPET imaging analysis; format: ADME, organism-based; conditions: in vivo
[4] = tested on: Kidney; experiment: Biodistribution in tumor bearing Mus musculus KM (mouse) kidney at 15 min by microPET imaging analysis; format: ADME, organism-based; conditions: in vivo, 0.25 h
[5] = tested on: Heart; experiment: Biodistribution in tumor bearing Mus musculus KM (mouse) heart at 5 min by microPET imaging analysis; format: ADME, organism-based; conditions: in vivo
[6] = tested on: Liver; experiment: Biodistribution in tumor bearing Mus musculus KM (mouse) liver at 5 min by microPET imaging analysis; format: ADME, organism-based; conditions: in vivo
[7] = tested on: Spleen; experiment: Biodistribution in tumor bearing Mus musculus KM (mouse) spleen at 5 min by microPET imaging analysis; format: ADME, organism-based; conditions: in vivo
[8] = tested on: Liver; experiment: Biodistribution in tumor bearing Mus musculus KM (mouse) liver at 120 min by microPET imaging analysis; format: ADME, organism-based; conditions: in vivo, 2 h
[9] = tested on: Tumour; experiment: Biodistribution in Mus musculus KM (mouse) tumor at 120 min by microPET imaging analysis; format: ADME, organism-based, Neoplasm; conditions: in vivo, 2 h
[10] = tested on: Heart; experiment: Biodistribution in tumor bearing Mus musculus KM (mouse) heart at 15 min by microPET imaging analysis; format: ADME, organism-based; conditions: in vivo, 0.25 h
[11] = tested on: Spleen; experiment: Biodistribution in tumor bearing Mus musculus KM (mouse) spleen at 60 min by microPET imaging analysis; format: ADME, organism-based; conditions: in vivo, 1 h
[12] = tested on: Tumour; experiment: Biodistribution in Mus musculus KM (mouse) tumor at 5 min by microPET imaging analysis; format: ADME, organism-based, Neoplasm; conditions: in vivo
[13] = tested on: Kidney; experiment: Biodistribution in tumor bearing Mus musculus KM (mouse) kidney at 60 min by microPET imaging analysis; format: ADME, organism-based; conditions: in vivo, 1 h
[14] = tested on: Spleen; experiment: Biodistribution in tumor bearing Mus musculus KM (mouse) spleen at 120 min by microPET imaging analysis; format: ADME, organism-based; conditions: in vivo, 2 h
[15] = tested on: Heart; experiment: Biodistribution in tumor bearing Mus musculus KM (mouse) heart at 120 min by microPET imaging analysis; format: ADME, organism-based; conditions: in vivo, 2 h
[16] = tested on: Blood; experiment: Biodistribution in tumor bearing Mus musculus KM (mouse) blood at 60 min by microPET imaging analysis; format: ADME, organism-based; conditions: in vivo, 1 h
[17] = tested on: Muscle tissue; experiment: Biodistribution in tumor bearing Mus musculus KM (mouse) muscle at 120 min by microPET imaging analysis; format: ADME, organism-based; conditions: in vivo, 2 h
[18] = tested on: Nucleic Acid; experiment: Ratio of drug uptake in tumor to muscle in Mus musculus KM (mouse) at 15 min; format: ADME, nucleic-acid assay; conditions: in vivo, 0.25 h
[19] = tested on: Liver; experiment: Biodistribution in tumor bearing Mus musculus KM (mouse) liver at 15 min by microPET imaging analysis; format: ADME, organism-based; conditions: in vivo, 0.25 h
[20] = tested on: Liver; experiment: Biodistribution in tumor bearing Mus musculus KM (mouse) liver at 60 min by microPET imaging analysis; format: ADME, organism-based; conditions: in vivo, 1 h
[21] = tested on: Blood; experiment: Biodistribution in tumor bearing Mus musculus KM (mouse) blood at 120 min by microPET imaging analysis; format: ADME, organism-based; conditions: in vivo, 2 h
[22] = tested on: Kidney; experiment: Biodistribution in tumor bearing Mus musculus KM (mouse) kidney at 5 min by microPET imaging analysis; format: ADME, organism-based; conditions: in vivo
[23] = tested on: Nucleic Acid; experiment: Ratio of drug uptake in tumor to muscle in Mus musculus KM (mouse) at 120 min; format: ADME; conditions: in vivo, 2 h
[24] = tested on: Kidney; experiment: Biodistribution in tumor bearing Mus musculus KM (mouse) kidney at 120 min by microPET imaging analysis; format: ADME, organism-based; conditions: in vivo, 2 h
[25] = tested on: Lung; experiment: Biodistribution in tumor bearing Mus musculus KM (mouse) Lung at 120 min by microPET imaging analysis; format: ADME, organism-based; conditions: in vivo, 2 h
[26] = tested on: Blood; experiment: Biodistribution in tumor bearing Mus musculus KM (mouse) blood at 30 min by microPET imaging analysis; format: ADME, organism-based; conditions: in vivo, 0.5 h
[27] = tested on: Muscle tissue; experiment: Biodistribution in tumor bearing Mus musculus KM (mouse) muscle at 15 min by microPET imaging analysis; format: ADME, organism-based; conditions: in vivo, 0.25 h
[28] = tested on: Muscle tissue; experiment: Biodistribution in tumor bearing Mus musculus KM (mouse) muscle at 60 min by microPET imaging analysis; format: ADME, organism-based; conditions: in vivo, 1 h
[29] = tested on: Tumour; experiment: Biodistribution in Mus musculus KM (mouse) tumor at 60 min by microPET imaging analysis; format: ADME, organism-based, Neoplasm; conditions: in vivo, 1 h
[30] = tested on: Blood; experiment: Biodistribution in tumor bearing Mus musculus KM (mouse) blood at 5 min by microPET imaging analysis; format: ADME, organism-based; conditions: in vivo
[31] = tested on: Spleen; experiment: Biodistribution in tumor bearing Mus musculus KM (mouse) spleen at 30 min by microPET imaging analysis; format: ADME, organism-based; conditions: in vivo, 0.5 h
[32] = tested on: Tumour; experiment: Biodistribution in Mus musculus KM (mouse) tumor at 30 min by microPET imaging analysis; format: ADME, organism-based, Neoplasm; conditions: in vivo, 0.5 h
[33] = tested on: Nucleic Acid; experiment: Ratio of drug uptake in tumor to muscle in Mus musculus KM (mouse) at 60 min; format: ADME, nucleic-acid assay; conditions: in vivo, 1 h
[34] = tested on: Brain; experiment: Biodistribution in tumor bearing Mus musculus KM (mouse) brain at 15 min by microPET imaging analysis; format: ADME, organism-based; conditions: in vivo, 0.25 h
[35] = tested on: Kidney; experiment: Biodistribution in tumor bearing Mus musculus KM (mouse) kidney at 30 min by microPET imaging analysis; format: ADME, organism-based; conditions: in vivo, 0.5 h
[36] = tested on: Brain; experiment: Biodistribution in tumor bearing Mus musculus KM (mouse) brain at 5 min by microPET imaging analysis; format: ADME, organism-based; conditions: in vivo
[37] = tested on: Heart; experiment: Biodistribution in tumor bearing Mus musculus KM (mouse) heart at 60 min by microPET imaging analysis; format: ADME, organism-based; conditions: in vivo, 1 h
[38] = tested on: Brain; experiment: Biodistribution in tumor bearing Mus musculus KM (mouse) brain at 120 min by microPET imaging analysis; format: ADME, organism-based; conditions: in vivo, 2 h
[39] = tested on: Muscle tissue; experiment: Biodistribution in tumor bearing Mus musculus KM (mouse) muscle at 30 min by microPET imaging analysis; format: ADME, organism-based; conditions: in vivo, 0.5 h
[40] = tested on: Blood; experiment: Biodistribution in tumor bearing Mus musculus KM (mouse) blood at 15 min by microPET imaging analysis; format: ADME, organism-based; conditions: in vivo, 0.25 h
[41] = tested on: Spleen; experiment: Biodistribution in tumor bearing Mus musculus KM (mouse) spleen at 15 min by microPET imaging analysis; format: ADME, organism-based; conditions: in vivo, 0.25 h
[42] = tested on: Liver; experiment: Biodistribution in tumor bearing Mus musculus KM (mouse) liver at 30 min by microPET imaging analysis; format: ADME, organism-based; conditions: in vivo, 0.5 h
[43] = tested on: Tumour; experiment: Biodistribution in Mus musculus KM (mouse) tumor at 15 min by microPET imaging analysis; format: ADME, organism-based, Neoplasm; conditions: in vivo, 0.25 h
[44] = tested on: Lung; experiment: Biodistribution in tumor bearing Mus musculus KM (mouse) Lung at 30 min by microPET imaging analysis; format: ADME, organism-based; conditions: in vivo, 0.5 h
[45] = tested on: Lung; experiment: Biodistribution in tumor bearing Mus musculus KM (mouse) Lung at 60 min by microPET imaging analysis; format: ADME, organism-based; conditions: in vivo, 1 h
[46] = tested on: Lung; experiment: Biodistribution in tumor bearing Mus musculus KM (mouse) Lung at 5 min by microPET imaging analysis; format: ADME, organism-based; conditions: in vivo
[47] = tested on: Nucleic Acid; experiment: Ratio of drug uptake in tumor to muscle in Mus musculus KM (mouse) at 30 min; format: ADME, nucleic-acid assay; conditions: in vivo, 0.5 h
[48] = tested on: Heart; experiment: Biodistribution in tumor bearing Mus musculus KM (mouse) heart at 30 min by microPET imaging analysis; format: ADME, organism-based; conditions: in vivo, 0.5 h
[49] = tested on: Brain; experiment: Biodistribution in tumor bearing Mus musculus KM (mouse) brain at 30 min by microPET imaging analysis; format: ADME, organism-based; conditions: in vivo, 0.5 h

OC[C@H]1OC(O)[C@H]([18F])[C@@H](O)[C@@H]1O (some centres undefined) [FLUDEOXYGLUCOSE F 18]
Drug uptake [1]: 1.96 % ID/g | Drug uptake [2]: 3.51 % ID/g | Drug uptake [3]: 2.92 % ID/g | Drug uptake [4]: 2.05 % ID/g | Drug uptake [5]: 5.33 % ID/g | Drug uptake [6]: 1.85 % ID/g | Drug uptake [7]: 1.92 % ID/g | Drug uptake [8]: 0.49 % ID/g | Drug uptake [9]: 3.12 % ID/g | Drug uptake [10]: 6.12 % ID/g | Drug uptake [11]: 1.83 % ID/g | Drug uptake [12]: 1.96 % ID/g | Drug uptake [13]: 0.9 % ID/g | Drug uptake [14]: 1.35 % ID/g | Drug uptake [15]: 9.6 % ID/g | Drug uptake [16]: 0.19 % ID/g | Drug uptake [17]: 1.85 % ID/g | Ratio [18]: 1.28 | Drug uptake [19]: 0.92 % ID/g | Drug uptake [20]: 0.5 % ID/g | Drug uptake [21]: 0.15 % ID/g | Drug uptake [22]: 3.36 % ID/g | Ratio [23]: 1.74 | Drug uptake [24]: 0.52 % ID/g | Drug uptake [25]: 1.05 % ID/g | Drug uptake [26]: 0.29 % ID/g | Drug uptake [27]: 2.33 % ID/g | Drug uptake [28]: 1.99 % ID/g | Drug uptake [29]: 3.86 % ID/g | Drug uptake [30]: 2.01 % ID/g | Drug uptake [31]: 1.75 % ID/g | Drug uptake [32]: 3.16 % ID/g | Ratio [33]: 1.94 | Drug uptake [34]: 4.55 % ID/g | Drug uptake [35]: 1.07 % ID/g | Drug uptake [36]: 3.81 % ID/g | Drug uptake [37]: 8.87 % ID/g | Drug uptake [38]: 1.89 % ID/g | Drug uptake [39]: 2.08 % ID/g | Drug uptake [40]: 0.94 % ID/g | Drug uptake [41]: 1.98 % ID/g | Drug uptake [42]: 0.46 % ID/g | Drug uptake [43]: 2.97 % ID/g | Drug uptake [44]: 1.4 % ID/g | Drug uptake [45]: 1.52 % ID/g | Drug uptake [46]: 2.37 % ID/g | Ratio [47]: 1.52 | Drug uptake [48]: 6.42 % ID/g | Drug uptake [49]: 4.25 % ID/g
